From PMC2951065 (Journal of Medicinal Chemistry, 2010)
Where a name gives a salt, the structure may show the parent alone.

Columns and labels:
[1] = target: T1, phosphatase domain of PHLPP2 (Homo sapiens, UniProt Q6ZVD8); assay: In vitro inhibition of PHLPP2 phosphatase domain, pNPP as substrate; type: biochemical; settings: for mechanism (type) of inhibition: with respect to pNPP
T1 sequence (Q6ZVD8 785-1033 limits assumed): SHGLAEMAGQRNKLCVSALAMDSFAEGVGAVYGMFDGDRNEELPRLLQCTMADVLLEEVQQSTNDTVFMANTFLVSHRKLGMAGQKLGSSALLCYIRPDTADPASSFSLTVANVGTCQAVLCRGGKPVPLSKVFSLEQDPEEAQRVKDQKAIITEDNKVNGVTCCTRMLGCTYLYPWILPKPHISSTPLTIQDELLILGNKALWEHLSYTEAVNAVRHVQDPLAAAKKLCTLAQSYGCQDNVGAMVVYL

PP2B/calcineurin = PP2B/calcineurin (Homo sapiens, UniProt Q08209); assay: Selectivity toward other phosphatases: PP2B, pNPP; type: biochemical
Chain of PP2B/calcineurin (P63098 whole entry, other chains not shown): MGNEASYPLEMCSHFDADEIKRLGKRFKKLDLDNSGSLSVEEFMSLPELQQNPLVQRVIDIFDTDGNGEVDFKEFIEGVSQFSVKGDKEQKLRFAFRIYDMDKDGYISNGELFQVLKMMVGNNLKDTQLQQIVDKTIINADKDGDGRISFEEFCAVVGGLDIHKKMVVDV

[2] = Precipitation in cell culture medium; type: physicochemical
COS 7 cells [3] = type: cell-based
PP1 = PP1 (Oryctolagus cuniculus, UniProt P62139); assay: Selectivity toward other phosphatases: PP1, pNPP; type: biochemical
Chain of PP1 (P62139 whole entry): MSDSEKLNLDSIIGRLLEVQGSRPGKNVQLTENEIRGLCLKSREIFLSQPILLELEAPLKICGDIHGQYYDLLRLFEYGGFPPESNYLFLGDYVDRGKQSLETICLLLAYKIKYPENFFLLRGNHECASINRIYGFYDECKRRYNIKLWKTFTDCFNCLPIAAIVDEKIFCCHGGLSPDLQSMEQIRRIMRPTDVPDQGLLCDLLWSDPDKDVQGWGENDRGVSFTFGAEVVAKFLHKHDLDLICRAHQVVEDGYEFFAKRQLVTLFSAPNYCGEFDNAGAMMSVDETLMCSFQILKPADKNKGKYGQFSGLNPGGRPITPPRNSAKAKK

COS 7 cells [4] = assay: Agonist; type: cell-based
PP2Cα = target: T2, PP2Cα (Homo sapiens, UniProt P35813); assay: Selectivity toward other phosphatases: PP2Cα, pNPP; type: biochemical
T2 sequence (P35813 1-382): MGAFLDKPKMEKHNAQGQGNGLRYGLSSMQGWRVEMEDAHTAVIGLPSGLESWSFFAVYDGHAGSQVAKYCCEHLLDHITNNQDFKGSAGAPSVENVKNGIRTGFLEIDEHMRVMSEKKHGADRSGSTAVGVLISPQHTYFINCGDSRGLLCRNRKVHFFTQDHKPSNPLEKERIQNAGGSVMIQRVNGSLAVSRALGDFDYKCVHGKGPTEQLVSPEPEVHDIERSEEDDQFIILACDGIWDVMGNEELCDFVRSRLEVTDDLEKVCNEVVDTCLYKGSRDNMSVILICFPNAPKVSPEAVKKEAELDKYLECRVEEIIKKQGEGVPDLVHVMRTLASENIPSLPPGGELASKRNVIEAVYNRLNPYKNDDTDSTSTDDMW

COS 7 cells [5] = assay: Apoptosis assay: etoposide-induced cell death, Trypan Blue exclusion; settings: for etoposide-induced increase in apoptotic cells: COS 7, 0.1% FBS
[6] = highest concentration tested (100 μM)
[7] = 10-fold higher concentration than 10 μM
[8] = 50 μM pretreatment 30 min, etoposide 24 h

For `Nc1c(S(=O)(=O)O)cc(Nc2cccc(S(N)(=O)=O)c2)c2c1C(=O)c1ccccc1C2=O` [Compound 1, 1-amino-9,10-dioxo-4-(3-sulfamoylanilino)anthracene-2-sulfonic acid, sodium salt], the IC50 [1] was 5.45 ± 0.05 µM, the “selectivity for PHLPP over the other phosphatases tested” value ([1]; vs PP1, PP2B, PP2Cα) was “over an order of magnitude” and the “mechanism (type) of inhibition” value [1] was “noncompetitive”. For the same molecule, the “effect on PP2B activity” value (PP2B/calcineurin; 10 μM compound) was “no significant effect”, the “effect on PP2B activity” value (PP2B/calcineurin; [6]) was “neither molecule affected the activity” and the “concentration at which compound tends to precipitate in the cell culture medium” value [2] was greater than 300 µM. For the same molecule, the “selectivity for Ser473 compared to Thr308” value (COS 7 cells [3]) was “almost 1 order of magnitude”, the “increase in the phosphorylation of Ser473 (basal Akt)” value (COS 7 cells [3]; serum-starved COS 7, 35 min) was “approximately 6 fold” and the IC50 (PP1) was roughly 100 µM. The “effect on PP1 activity” value (PP1; 10 μM compound) was “no significant effect”, the “inhibition of PP1” value (PP1; [7]) was “approximately 50%” and the “EGF-evoked increase in p308 phosphorylation” value (COS 7 cells [4]; 50 μM pretreatment, then EGF) was “approximately 6 fold”. The “basal phosphorylation at Ser473 compared with DMSO” value (COS 7 cells [4]; 50 μM, 35 min pretreatment, serum-starved COS 7) was “significantly higher”, the IC50 (PP2Cα) was roughly 100 µM and the “effect on PP2Cα activity” value (PP2Cα; 10 μM compound) was “no significant effect”. The “inhibition of PP2Cα” value (PP2Cα; [7]) was “approximately 50%”, the “basal level of apoptotic cells” value (COS 7 cells [5]; 50 μM compound, no etoposide) was “approximately 12%” and the “reduction of the magnitude of the etoposide-induced increase in apoptotic cells” value (COS 7 cells [5]; [8]) was “approximately 30%”. The “etoposide-induced increase in apoptotic cells” value (COS 7 cells [5]; [8]) was 2.6 ± 0.3 fold, the “phosphorylation of Akt on Ser 473” value (HT29 cells; HT29, 5% FBS, 24 h, 100 or 250 μM) was “increased Akt phosphorylation and activity in cells” and the “phosphorylation of downstream substrates GSK3 α/β (Ser21/9) and FoxO1/3α (Thr 24/32); Akt activity” value (from here on “phosphorylation … Akt activity”) (HT29 cells; HT29, 24 h, 100 or 250 μM) was “corresponding increases”.
In the case of `COc1ccc2nc3cc(Cl)ccc3c(Nc3ccc(C(=O)O)cc3)c2c1` [Compound 24], the “phosphorylation … Akt activity” value (HT29 cells; HT29, 24 h, 100 or 250 μM) is reported as “corresponding increases”.
For `COc1ccc(NCc2c(O)ccc3ccccc23)cc1` [Compound 2], the “mechanism (type) of inhibition” value [1] was “Noncompetitive”.
For `NS(=O)(=O)c1ccc(/N=N/c2ncccc2O)cc1` [Compound 7], the “mechanism (type) of inhibition” value [1] was “Competitive”.
For `Cc1cc(/N=N/c2ccc(/N=N/c3ccc(O)c(C(=O)O)c3)cc2)c(N)cc1N` [Compound 13, 1,3-[[4-(2,4-diamino-5-methylphenyl)diazenylphenyl]hydrazinylidene]-6-oxocyclohexa-1,4-diene-1-carboxylic acid], the “mechanism (type) of inhibition” value [1] was “noncompetitive”, the “effect on PP2B activity” value (PP2B/calcineurin; [6]) was “neither molecule affected the activity” and the “modulation of Ser473 phosphorylation” value (COS 7 cells [3]; cells grown in serum, data not shown) was “considerably less effective”. For the same molecule, the “increase in the phosphorylation of Ser473 (basal Akt)” value (COS 7 cells [3]; serum-starved COS 7, 35 min) was “approximately 4 fold”, the “sensitivity of phosphorylation of Akt on Thr308 compared with Ser473” value (COS 7 cells [3]; serum-starved COS 7, 35 min) was “not significantly different” and the IC50 (PP1) was roughly 100 µM. For the same molecule, the IC50 (PP2Cα) was roughly 100 µM and the “effect on etoposide-induced increase in apoptotic cells” value (COS 7 cells [5]; [8]) was “essentially abolished”.
For `COc1cc([C@@H]2c3cc4c(cc3[C@@H](O[C@@H]3O[C@@H]5CO[C@@H](C)O[C@H]5[C@H](O)[C@H]3O)[C@H]3COC(=O)[C@H]23)OCO4)cc(OC)c1O` [Etoposide, etoposide, reference compound], the “etoposide-induced increase in apoptotic cells” value (COS 7 cells [5]; [8]) was 3.4 ± 0.4 fold.
In the case of `COc1cc(NCCC2CCCCN2)c2ncccc2c1` (stereo not drawn) [Compound 4], the “mechanism (type) of inhibition” value [1] is reported as “uncompetitive”, the toxicity to cells (HT29 cells; HT29, 24 h) is reported as “induced cells to detach from culture dishes, reflecting toxicity” and the “phosphorylation … Akt activity” value (HT29 cells; HT29, 24 h, 100 or 250 μM) is reported as “corresponding increases”.
